Patent publication US20170217976A1, “6-(AMINO ACID)-MORPHINAN DERIVATIVES IN COMBINATION WITH PERMEATION […] FOR USE AS AN ORALLY, […], TRA[…] NASALLY AD[…]” (C[…], priority 2014, published 2017)
Like-named read-outs stand apart in the source and are kept apart here.

Experiments:
MOR = molecular target: T1, MOR (Rattus norvegicus, UniProt P33535); assay: Opioid receptor binding, MOR, rat brain membranes
T1 construct: from tissue

KOR = molecular target: T2, KOR (Cavia porcellus, UniProt P41144); assay: Opioid receptor binding, KOR, guinea pig brain membranes
T2 construct: from tissue

DOR = molecular target: T3, DOR (Rattus norvegicus, UniProt P33533); assay: Opioid receptor binding, DOR, rat brain membranes
T3 construct: from tissue

[1] = Binding Ki MOR, Table 2-6, rat brain membranes
[2] = Binding Ki KOR, Table 2-6, guinea pig brain membranes
[3] = Binding Ki DOR, Table 2-6, rat brain membranes
[4] = Binding Ki MOR, Table 1-6, rat brain membranes
[5] = Binding Ki KOR, Table 1-6, guinea pig brain membranes
[6] = Binding Ki DOR, Table 1-6, rat brain membranes
[7] = Binding Ki (nM) MOR, in vitro binding assay, rat brain membranes
[8] = Binding Ki (nM) KOR, in vitro binding assay, guinea pig brain membranes
[9] = Binding Ki (nM) DOR, in vitro binding assay, rat brain membranes
[10] = in vitro binding assay, rat brain membranes, read-out: Binding Ki (nM) MOR
[11] = in vitro binding assay, guinea pig brain membranes, read-out: Binding Ki (nM) KOR
[12] = in vitro binding assay, rat brain membranes, read-out: Binding Ki (nM) DOR

T2 sequence (P41144 whole entry): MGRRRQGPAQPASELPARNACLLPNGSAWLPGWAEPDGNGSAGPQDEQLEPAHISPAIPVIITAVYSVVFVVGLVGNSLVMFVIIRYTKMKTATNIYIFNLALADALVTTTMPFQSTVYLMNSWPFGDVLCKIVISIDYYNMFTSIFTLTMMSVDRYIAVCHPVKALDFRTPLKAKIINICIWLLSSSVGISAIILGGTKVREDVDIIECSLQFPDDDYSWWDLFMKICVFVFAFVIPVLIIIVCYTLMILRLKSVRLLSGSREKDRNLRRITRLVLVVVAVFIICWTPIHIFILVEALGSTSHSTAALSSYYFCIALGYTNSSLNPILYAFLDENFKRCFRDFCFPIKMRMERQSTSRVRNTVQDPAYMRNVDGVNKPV
T1 sequence (P33535 whole entry): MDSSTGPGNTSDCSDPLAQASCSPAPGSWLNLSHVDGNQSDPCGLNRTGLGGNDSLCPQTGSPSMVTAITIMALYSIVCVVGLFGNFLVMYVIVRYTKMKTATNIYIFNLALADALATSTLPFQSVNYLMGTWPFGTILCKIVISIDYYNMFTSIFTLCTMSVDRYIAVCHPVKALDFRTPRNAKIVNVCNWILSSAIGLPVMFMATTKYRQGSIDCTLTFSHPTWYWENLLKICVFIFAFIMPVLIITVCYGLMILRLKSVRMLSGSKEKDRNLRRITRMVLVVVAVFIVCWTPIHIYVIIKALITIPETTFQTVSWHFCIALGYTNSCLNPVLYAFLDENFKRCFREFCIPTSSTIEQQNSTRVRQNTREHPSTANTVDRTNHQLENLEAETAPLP
T3 sequence (P33533 whole entry): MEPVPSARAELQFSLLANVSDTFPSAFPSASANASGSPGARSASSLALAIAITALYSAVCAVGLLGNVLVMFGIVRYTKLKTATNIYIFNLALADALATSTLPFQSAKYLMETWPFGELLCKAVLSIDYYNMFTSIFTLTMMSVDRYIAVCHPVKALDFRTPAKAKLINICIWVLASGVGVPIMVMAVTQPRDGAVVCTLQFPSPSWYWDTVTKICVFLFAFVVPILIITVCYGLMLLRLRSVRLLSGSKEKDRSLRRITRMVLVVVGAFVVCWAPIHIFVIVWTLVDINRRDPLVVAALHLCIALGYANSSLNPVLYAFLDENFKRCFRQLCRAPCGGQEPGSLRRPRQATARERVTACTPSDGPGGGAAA

Row | Structure (SMILES) | Ki (MOR; [1]) | Ki (KOR; [2]) | Ki (DOR; [3]) | Ki (MOR; [4]) | Ki (KOR; [5]) | Ki (DOR; [6]) | further results
1 | CO[C@@]12CC[C@H](N[C@@H](Cc3ccccc3)C(=O)O)[C@@H]3Oc4c(O)ccc5c4[C@@]31CCN(CC1CC1)[C@@H]2C5 [Compound 57] | 0.51 nM | 4.21 nM | 1.17 nM |  |  |  | 
2 | CO[C@@]12CC[C@@H](N[C@@H](Cc3ccccc3)C(=O)O)[C@@H]3Oc4c(O)ccc5c4[C@@]31CCN(CC1CC1)[C@@H]2C5 [Compound 58] |  |  |  |  |  |  | Ki (MOR; Table 2-6, rat brain membranes, read-out: Binding Ki MOR): 1.23 nM; Ki (KOR; Table 2-6, guinea pig brain membranes, read-out: Binding Ki KOR): 8.42 nM; Ki (DOR; Table 2-6, rat brain membranes, read-out: Binding Ki DOR): 2.02 nM
3 | O=C(O)CN[C@H]1CC[C@@]2(O)[C@H]3Cc4ccc(O)c5c4[C@@]2(CCN3CC2CC2)[C@H]1O5 [Compound 67] |  |  |  | 0.88 nM | 2.81 nM | 13.1 nM | 
4 | CO[C@@]12CC[C@@H](N[C@@H](C)C(=O)O)[C@@H]3Oc4c(O)ccc5c4[C@@]31CCN(CC1CC1)[C@@H]2C5 [Compound 72] | 2.13 nM | 11.5 nM | 5.8 nM | 2.13 nM | 11.5 nM | 5.8 nM | 
5 | CO[C@@]12CC[C@@H](N[C@@H](CC(=O)O)C(=O)O)[C@@H]3Oc4c(O)ccc5c4[C@@]31CCN(CC1CC1)[C@@H]2C5 [Compound 73] | 2.24 nM | 11.7 nM | 0.64 nM | 2.24 nM | 11.7 nM | 0.64 nM | 
6 | COC12CCC(NC(CCC(=O)O)C(=O)O)C3Oc4c(O)ccc5c4C31CCN(CC1CC1)C2C5 (stereo not drawn) [Compound 74] | 1.93 nM | 6.66 nM | 3.61 nM | 1.93 nM | 6.66 nM | 3.61 nM | 
7 | CO[C@@]12CC[C@@H](N[C@@H](CCC(=O)O)C(=O)O)[C@@H]3Oc4c(O)ccc5c4[C@@]31CCN(CC1CC1)[C@@H]2C5 [Compound 75] | 3.35 nM | 12.9 nM | 2.77 nM | 3.35 nM | 12.9 nM | 2.77 nM | 
8 | CO[C@@]12CC[C@H](N[C@@H](CC(C)C)C(=O)O)[C@@H]3Oc4c(O)ccc5c4[C@@]31CCN(CC1CC1)[C@@H]2C5 [Compound 76] | 0.72 nM | 7.87 nM | 2.2 nM |  |  |  | 
9 | CO[C@@]12CC[C@@H](N[C@@H](CC(C)C)C(=O)O)[C@@H]3Oc4c(O)ccc5c4[C@@]31CCN(CC1CC1)[C@@H]2C5 [Compound 77] | 1.96 nM | 11 nM | 1.13 nM |  |  |  | 
10 | CC[C@H](C)[C@H](N[C@@H]1CC[C@@]2(OC)[C@H]3Cc4ccc(O)c5c4[C@@]2(CCN3CC2CC2)[C@H]1O5)C(=O)O [Compound 78] | 1.62 nM | 9.49 nM | 1.44 nM |  |  |  | 
11 | CC[C@H](N[C@@H]1CC[C@@]2(OC)[C@H]3Cc4ccc(O)c5c4[C@@]2(CCN3CC2CC2)[C@H]1O5)C(=O)O [Compound 79] |  |  |  | 3.39 nM | 19.1 nM | 6.2 nM | 
12 | CCOC(=O)CN[C@H]1CC[C@@]2(OC)[C@H]3Cc4ccc(O)c5c4[C@@]2(CCN3C)[C@H]1O5 [HS730-Et ester] |  |  |  |  |  |  | Ki (MOR; [7]): 0.28 nM; Ki (KOR; [8]): 8.57 nM; Ki (DOR; [9]): 0.96 nM
13 | CO[C@@]12CC[C@H](NCC(=O)OCc3ccccc3)[C@@H]3Oc4c(O)ccc5c4[C@@]31CCN(C)[C@@H]2C5 [HS730-benzyl ester] |  |  |  |  |  |  | Ki (MOR; [7]): 0.19 nM; Ki (KOR; [8]): 0.47 nM; Ki (DOR; [9]): 0.91 nM
14 | CCCCCCCCOC(=O)CN[C@H]1CC[C@@]2(OC)[C@H]3Cc4ccc(O)c5c4[C@@]2(CCN3C)[C@H]1O5 [HS730-nOc ester] |  |  |  |  |  |  | Ki (MOR; [10]): 1.29 nM; Ki (KOR; [11]): 2.97 nM; Ki (DOR; [12]): 3.23 nM
15 | CO[C@@]12CC[C@@H](NCC(=O)OCc3ccccc3)[C@@H]3Oc4c(O)ccc5c4[C@@]31CCN(C)[C@@H]2C5 [HS731-benzyl ester] |  |  |  |  |  |  | Ki (MOR; [7]): 0.29 nM; Ki (KOR; [11]): 2.86 nM; Ki (DOR; [12]): 0.74 nM
16 | CCCCCCCCOC(=O)CN[C@@H]1CC[C@@]2(OC)[C@H]3Cc4ccc(O)c5c4[C@@]2(CCN3C)[C@H]1O5 [HS731-nOc ester] |  |  |  |  |  |  | Ki (MOR; [10]): 2.56 nM; Ki (KOR; [11]): 3.87 nM; Ki (DOR; [12]): 2.71 nM
17 | CO[C@@]12CC[C@@H](NCC(=O)OC(C)(C)C)[C@@H]3Oc4c(O)ccc5c4[C@@]31CCN(C)[C@@H]2C5 [HS731-t-Bu ester] |  |  |  |  |  |  | Ki (MOR; [7]): 1.3 nM; Ki (KOR; [11]): 56.2 nM; Ki (DOR; [12]): 0.68 nM
